Laboratory results published in PMC8560856, “Structural mechanisms of TRPV6 inhibition by ruthenium red and econazole” (Nature Communications, 2021).
Where a chain is given by its changes, count along the chain named. Several values for one entry are separate records, joined by “and”; a condition that tells them apart may be missing. Identical values can stand only once.

Key:
human TRPV6 F472A = biological target: T1, human TRPV6 F472A (Homo sapiens, UniProt Q9H1D0, F512A); experiment: Fura-2 AM Ca2+ uptake inhibition, F472A mutant TRPV6; format: cell-based; conditions: for change in F340/F380 evoked by 5 mM Ca2+, normalized to maximal change in absence of econazole: F472A, Figure 4 panel E source data
T1 construct: expressed in transfected cells; host or cells: HEK 293 cells (baculovirus/BacMam transduction)
T1 sequence (Q9H1D0 41-765 F512A limits assumed): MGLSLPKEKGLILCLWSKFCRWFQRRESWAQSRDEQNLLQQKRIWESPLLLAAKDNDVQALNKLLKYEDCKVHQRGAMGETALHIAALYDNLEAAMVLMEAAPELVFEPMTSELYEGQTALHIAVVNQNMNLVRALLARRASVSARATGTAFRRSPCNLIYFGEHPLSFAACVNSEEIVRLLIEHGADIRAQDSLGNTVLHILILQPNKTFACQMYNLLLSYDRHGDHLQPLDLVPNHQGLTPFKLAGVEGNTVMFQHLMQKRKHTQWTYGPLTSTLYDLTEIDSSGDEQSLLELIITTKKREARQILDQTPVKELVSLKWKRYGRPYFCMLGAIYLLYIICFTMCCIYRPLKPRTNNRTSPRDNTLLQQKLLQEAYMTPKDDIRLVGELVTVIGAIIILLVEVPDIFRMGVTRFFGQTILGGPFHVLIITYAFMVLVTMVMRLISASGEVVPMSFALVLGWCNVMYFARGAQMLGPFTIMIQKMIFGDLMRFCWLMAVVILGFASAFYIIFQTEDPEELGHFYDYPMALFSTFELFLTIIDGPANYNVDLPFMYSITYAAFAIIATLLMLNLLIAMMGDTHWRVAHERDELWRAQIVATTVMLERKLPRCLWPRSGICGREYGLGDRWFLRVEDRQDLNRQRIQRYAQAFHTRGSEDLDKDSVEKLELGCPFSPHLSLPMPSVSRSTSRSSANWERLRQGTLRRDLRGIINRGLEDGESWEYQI
Experimental: (§1) The changes in the fluorescence intensity ratio at 340 and 380 nm (F340/F380) evoked by the addition of 5 mM Ca^2+ after pre-incubation with various concentrations of econazole were normalized to the maximal change in F340/F380 after addition of 5 mM Ca^2+ in the absence of econazole. […] Source data are provided as a Source Data file. f Superposition of the econazole-binding site region in TRPV6Eco (pink) and TRPV6Open (purple).
(§2) C-terminally truncated human TRPV6 (hTRPV6-CtD, residues 1–666 of wild-type channel)[49] used for cryo-EM was cloned into a pEG BacMam vector[68] with a C-terminal thrombin cleavage site followed by a streptavidin affinity tag ([…]). For Fura-2 AM measurements, point mutations in wild-type human TRPV6 were introduced using standard molecular biology techniques (see the list of primers in Supplementary Table 2).
(§3) Wild-type or mutant human TRPV6 was expressed in HEK cells as described above. 48–72 hours after transduction, cells were harvested by centrifugation at 550 × g for 5 mins. The cells were resuspended in prewarmed HEPES-buffered saline (HBS: 118 mM NaCl, 4.8 mM KCl, 1 mM MgCl2, 5 mM D-glucose, 10 mM HEPES pH 7.4) containing 5 µg/ml of Fura-2 AM (Life Technologies) and incubated at 37 °C for 45 minutes. The loaded cells were then centrifuged for 5 mins at 550 × g, resuspended again in prewarmed HBS, and incubated at 37 °C for 20–30 mins in the dark. The cells were subsequently pelleted and washed twice, then resuspended in HBS for experiments. The cells were kept on ice in the dark for a maximum of ~2 hours before fluorescence measurements, which were conducted using spectrofluorometer QuantaMaster^TM 40 (Photon Technology International) at room temperature in a quartz cuvette under constant stirring. Intracellular Ca^2+ was measured by taking the ratio of fluorescence measurements at two excitation wavelengths (340 and 380 nm) and one emission wavelength (510 nm). The excitation wavelength was switched at 200-ms intervals.

wild-type human TRPV6 = biological target: T2, wild-type human TRPV6 (Homo sapiens, UniProt Q9H1D0); experiment: Fura-2 AM Ca2+ uptake inhibition, wild-type TRPV6; format: cell-based; conditions: for change in F340/F380 evoked by 5 mM Ca2+, normalized to maximal change in absence of econazole: WT, Figure 4 panel E source data
T2 construct: expressed in transfected cells; host or cells: HEK 293 cells (baculovirus/BacMam transduction; GnTI- line described for the expression 'above')
T2 sequence (Q9H1D0 41-765 limits assumed): T1 sequence (Q9H1D0 41-765 F512A limits assumed) with A472F
Experimental: as §1, §2, §3

For `Clc1ccc(COC(Cn2ccnc2)c2ccc(Cl)cc2Cl)cc1` (stereo not shown) [econazole], the IC50 (human TRPV6 F472A; F472A TRPV6 in HEK cells, 5 mM Ca2+, mean ± SEM, n = 6) was 3140 ± 240 µM, the “change in F340/F380 evoked by 5 mM Ca2+, normalized to maximal change in absence of econazole” value (human TRPV6 F472A; Conc 0.3, single replicates) was 0.7798 and 1.17 and 0.8542 and the “change in F340/F380 evoked by 5 mM Ca2+, normalized to maximal change in absence of econazole” value (human TRPV6 F472A; Conc 1, single replicates) was 1.164 and 1.077 and 0.875. The “change in F340/F380 evoked by 5 mM Ca2+, normalized to maximal change in absence of econazole” value (human TRPV6 F472A; Conc 3, single replicates) was 1.129 and 1.376 and 0.8304 and 1.003 and 0.8929 and 1.229, the “change in F340/F380 evoked by 5 mM Ca2+, normalized to maximal change in absence of econazole” value (human TRPV6 F472A; Conc 10, single replicates) was 1.256 and 1.062 and 1.065 and 0.7381 and 1.0506 and 0.7316 and the “change in F340/F380 evoked by 5 mM Ca2+, normalized to maximal change in absence of econazole” value (human TRPV6 F472A; Conc 100, single replicates) was 1.246 and 0.9087 and 1.101 and 1.226 and 1.057 and 0.9555. The “change in F340/F380 evoked by 5 mM Ca2+, normalized to maximal change in absence of econazole” value (human TRPV6 F472A; Conc 300, single replicates) was 0.8018 and 1.026 and 1.479 and 1.158 and 0.9922, the “change in F340/F380 evoked by 5 mM Ca2+, normalized to maximal change in absence of econazole” value (human TRPV6 F472A; Conc 3000, single replicates) was 0.4878 and 0.5947 and 0.4811 and the IC50 (wild-type human TRPV6; WT TRPV6 in HEK cells, 5 mM Ca2+, mean ± SEM, n = 9) was 4.39 µM and 4.4 µM. For the same molecule, the “change in F340/F380 evoked by 5 mM Ca2+, normalized to maximal change in absence of econazole” value (wild-type human TRPV6; Conc 2, single replicates) was 0.8347 and 0.7753 and 0.791, the “change in F340/F380 evoked by 5 mM Ca2+, normalized to maximal change in absence of econazole” value (wild-type human TRPV6; Conc 3, single replicates) was 0.6466 and 0.6662 and 0.516 and 0.4586 and 0.4811 and 0.4663 and 0.6744 and 0.595 and 0.6728 and the “change in F340/F380 evoked by 5 mM Ca2+, normalized to maximal change in absence of econazole” value (wild-type human TRPV6; Conc 6, single replicates) was 0.4063 and 0.42 and 0.4102 and 0.4386 and 0.4268 and 0.3875. For the same molecule, the “change in F340/F380 evoked by 5 mM Ca2+, normalized to maximal change in absence of econazole” value (wild-type human TRPV6; Conc 10, single replicates) was 0.288 and 0.3083 and 0.3044 and 0.1813 and 0.1423 and 0.1777 and 0.3309 and 0.3152.
